ChEMBL document CHEMBL1221163, “Monocarboxylate transporter MCT1 is a target for immunosuppression” (Nat Chem Biol, 2005)
Activity calls are given as the source filed them. The calls are words filed in the database; no cut-off is given here.

What was measured:
PBMC = test: Antiproliferative activity against human PBMC assessed as inhibition of PMA/ionomycin-stimulated cell proliferation by [3H]thymidine incorporation assay; type: functional, cell-based
T-cell [1] = test: Increase in intracellular lactate production in PMA-ionomycin stimulated human T cells after 4 hrs; type: functional, cell-based
T-cell [2] = test: Reduction in extracellular lactate production in PMA-ionomycin stimulated human T cells after 4 hrs; type: functional, cell-based
T-cell [3] = test: Inhibition of conversion of [1,2-13C2]glucose into [2,3-13C2]lactate in PMA-ionomycin stimulated human T cells at 10 nM after 6 hrs by GC-MS method; type: functional, cell-based
T-cell [4] = test: Antiproliferative activity against human T cells assessed as inhibition of PMA-ionomycin stimulated cell proliferation by [3H]thymidine incorporation assay; type: functional, cell-based
Rattus norvegicus = test: Inhibition of graft-versus-host response-induced lymph node expansion in DA/Lewis recipient rat administered once daily through subcutaneous route; type: functional; conditions: sc
[5] = molecular target: T1, Monocarboxylate transporter 1 (Homo sapiens) (UniProt P53985); conditions: INS1, 10 nM
T1 sequence (whole entry): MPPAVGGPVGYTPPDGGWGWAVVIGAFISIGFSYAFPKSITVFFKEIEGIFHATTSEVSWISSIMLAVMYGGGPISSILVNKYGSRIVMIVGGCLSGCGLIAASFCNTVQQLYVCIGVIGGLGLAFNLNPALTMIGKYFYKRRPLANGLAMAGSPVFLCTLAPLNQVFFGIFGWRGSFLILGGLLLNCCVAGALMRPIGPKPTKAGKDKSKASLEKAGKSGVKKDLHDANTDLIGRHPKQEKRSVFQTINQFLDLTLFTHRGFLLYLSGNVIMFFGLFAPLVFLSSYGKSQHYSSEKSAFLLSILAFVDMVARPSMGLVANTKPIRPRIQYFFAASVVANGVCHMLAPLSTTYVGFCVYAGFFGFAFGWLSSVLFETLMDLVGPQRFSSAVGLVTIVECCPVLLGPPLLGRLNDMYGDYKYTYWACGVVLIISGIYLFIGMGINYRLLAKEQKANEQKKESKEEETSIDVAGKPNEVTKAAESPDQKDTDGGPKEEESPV

[6] = Antiproliferative activity against human T cells assessed as inhibition of PMA-ionomycin stimulated cell proliferation after 3 days by [3H]thymidine incorporation assay; type: functional, cell-based
T-cell [7] = test: Antiproliferative activity against Lewis rat T cells assessed as inhibition of PMA-ionomycin stimulated cell proliferation by [3H]thymidine incorporation assay; type: functional, cell-based
T-cell [8] = test: Inhibition of DNA synthesis in PMA-ionomycin stimulated human T cells after 4 hrs by [3H]thymidine incorporation assay; type: functional, cell-based
[9] = molecular target: T2, Monocarboxylate transporter 1 (Rattus norvegicus) (UniProt P53987); test: 6-[[4-azido-3-(iodo-125I)phenyl]methyl]-2,6-dihydro-2-methyl-4-(2-methylpropyl)-1H-pyrrolo[3,4-d]pyridazin-1-one from MCT1 in rat RBC ghost membranes at 1 uM by photoaffinity labeling study; type: cell membranes
T2 sequence (whole entry): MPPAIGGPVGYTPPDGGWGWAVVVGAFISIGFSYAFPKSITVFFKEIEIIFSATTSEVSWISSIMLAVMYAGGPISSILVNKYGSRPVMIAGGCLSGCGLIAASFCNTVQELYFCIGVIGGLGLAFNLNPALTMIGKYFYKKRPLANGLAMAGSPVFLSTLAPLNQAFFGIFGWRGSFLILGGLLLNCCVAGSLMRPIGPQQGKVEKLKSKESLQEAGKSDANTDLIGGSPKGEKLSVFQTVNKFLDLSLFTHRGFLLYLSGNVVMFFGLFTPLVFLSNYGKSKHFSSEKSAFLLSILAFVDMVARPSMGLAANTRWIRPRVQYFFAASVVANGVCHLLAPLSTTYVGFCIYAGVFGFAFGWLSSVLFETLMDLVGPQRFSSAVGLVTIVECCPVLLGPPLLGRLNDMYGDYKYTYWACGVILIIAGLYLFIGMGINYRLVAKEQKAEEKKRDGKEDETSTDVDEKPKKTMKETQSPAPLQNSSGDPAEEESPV

[10] = molecular target: T3, Monocarboxylate transporter 1 (Homo sapiens, UniProt P53985); test: Displacement of [3H]5-[(3-hydroxypropyl)thio]-3-methyl-1-[2-(methyl-t)propyl-2,3-t2]-6-(1-naphthalenylmethyl)-1H-pyrrolo[3,4-d]pyrimidine-2,4(3H,6H)-dione from MCT1 in human Jurkat cell membranes
T3 sequence (P53985 whole entry): T1 sequence (whole entry)

[11] = molecular target: T2, Monocarboxylate transporter 1 (Rattus norvegicus); test: 6-[[4-azido-3-(iodo-125I)phenyl]methyl]-2,6-dihydro-2-methyl-4-(2-methylpropyl)-1H-pyrrolo[3,4-d]pyridazin-1-one from MCT1 in rat RBC membranes at 50 nM by photoaffinity labeling study; type: cell membranes
[12] = molecular target: T3, Monocarboxylate transporter 1; test: Displacement of [3H]5-[(3-hydroxypropyl)thio]-3-methyl-1-[2-(methyl-t)propyl-2,3-t2]-6-(1-naphthalenylmethyl)-1H-pyrrolo[3,4-d]pyrimidine-2,4(3H,6H)-dione from human MCT1 expressed in INS1 cell membrane; type: cell membranes; conditions: read-out: pKi (converted)

Ki [10] [nM] | Structure (SMILES) | IC50 (PBMC) [nM] | inhibition (PBMC) | inhibition (T-cell [4]) | inhibition (T-cell [7]) | other results
– | CC(C)Cn1c(=O)n(C)c(=O)c2c(SCCCO)c(Cc3ccccc3C(F)(F)F)sc21 | 0.257 | – | – | – | –
– | CC(C)Cc1nn(C)c(=O)c2c(SCCCO)n(Cc3cccc4ccccc34)cc12 | – | Active | Active | Active | IC50 (T-cell [1]): 0.55 nM; IC50 (T-cell [2]): 0.794 nM; inhibition (T-cell [3]): Active; ED50 (Rattus norvegicus): 5 mg/kg/day; inhibition [5]: Active; IC50 [6]: 0.38 nM; IC50 (T-cell [8]): 1.35 nM
– | CC(C)Cn1c(=O)n(C)c(=O)c2c(SCCCO)n(Cc3cccc4ccccc34)cc21 | 2.45 | Active | Active | Active | inhibition [9]: Active
> 200 | CC(C)Cn1c(=O)[nH]c(=O)c2c(C(=O)N3CCC3)c(Cc3ccccc3C(F)(F)F)sc21 | > 1000 | – | – | – | inhibition [11]: Active
15.5 | CC(C)Cn1c(=O)n(C)c(=O)c2cn(Cc3cccc4ccccc34)cc21 | 56.2 | – | – | – | Ki [12]: 46.8 nM
